Here are results for one substance from US12528837B2, “Aryl substituted polymyxin derivatives” (priority 2018, dated 2026).

Values joined by “and” are separate entries in the source; they are usually repeats but may differ in a detail not shown here. Equal values may be shown once. Where only a bound is given, the exact number is not on record here.

One assay has as its system A. baumannii NCTC13301. As to the kind of experiment: Neutropenic murine thigh model. The assay is classed as in vivo. The settings on record: CD-1 mice thigh, IV 0.5 mg/kg at 2, 6, 10 h, counts at 16 h, PMB in parentheses, listed as PMB. As for the experimental part:
After rendering neutropenic (cyclophosphamide 150 mg/kg d-4, 100 mg/kg d-1), CD-1 mice (n=5) were inoculated in each thigh with approx. 10^5 cfu of A. baumannii NCTC13301. […] At 16 h post-infection mice were euthanised and thighs prepared for colony counts.
In each case the decrease observed with PMB in the same experiment is shown in parentheses: […]

In the next assay the test system is A. baumannii IHMA 517303. The assay is classed as cell-based. Conditions: alone. As for the experimental part:
(§1) MIC values (μg/mL) were determined by broth microdilution under CLSI conditions.

For assay [1], the system named is K. pneumoniae IHMA 580884. Format: cell-based. The settings on record: alone. As for the experimental part:
as §1

In assay [2] the test system is P. aeruginosa IHMA 517175. The assay is classed as cell-based. Conditions: alone. As for the experimental part: as §1
Assay [3] concerns A. baumannii IHMA 851735 (OXA-23). The assay is classed as cell-based. The settings on record: OXA-23; alone. As for the experimental part:
as §1

In assay [4] the test system is K. pneumoniae IHMA 520329 (SHV-12, KPC-2). Format: cell-based. The settings on record: SHV-12, KPC-2; alone. As for the experimental part:
as §1

In the case of Polymyxin B [reference compound], the “Log drop in cfu Compared to Vehicle Control” value in the assay on A. baumannii NCTC13301 is 4.2 and 4.1. The “MIC A. baumannii IHMA 517303” value against A. baumannii IHMA 517303 is above 64 µg/mL. Moreover, the “MIC K. pneumoniae IHMA 580884” value in assay [1] is 8 µg/mL. The “MIC P. aeruginosa IHMA 517175” value in assay [2] turned out to be 8 µg/mL. Moreover, in assay [3], the “MIC A. baumannii IHMA 851735” value turned out to be 8 µg/mL. Besides, the “MIC K. pneumoniae IHMA 520329” value in assay [4] is 64 µg/mL.
